Assay results: US6433151B1, “Erythromycin derivatives, a process for their preparation and their use as medicaments” (Aventis Pharma S.A., priority 1998, dated 2002)

Key:
Test in all cases: Method of dilutions in a liquid medium (MIC)
Assay type in all cases: cell-based
[1] = tested on: S. pneumoniae 030R01I; details: ery R, reading after 24 hours
Protocol: (§1) Method of Dilutions in a Liquid Medium
(§2) A series of tubes in which the same amount of sterile nutrient medium is distributed is prepared. Increasing amounts of the product to be studied are distributed in each tube, and each tube is then seeded with a strain of bacteria.
(§3) After incubation for twenty-four hours in an oven at 37° C., the inhibition of growth is evaluated by transillumination, from which the minimum inhibitory concentrations (MIC), expressed in micrograms/cm^3, can be determined.
(§4) The following results were obtained with the product from example 1 and from example 2 (reading taken after 24 hours).

[2] = tested on: S. sanguis 02SgGr10I; details: ery R, reading after 24 hours
Protocol: as §1, §2, §3, §4

[3] = tested on: S. pneumoniae 032UC1; details: S. pneumoniae 032UC1, ery S; reading after 24 hours
Protocol: as §1, §2, §3, §4

[4] = tested on: Streptococcus gr. G 02GOGR5; details: Streptococcus gr. G 02GOGR5, Ery S; reading after 24 hours
Protocol: as §1, §2, §3, §4

[5] = tested on: S. pneumoniae 030SJ1c; details: ery R, reading after 24 hours
Protocol: as §1, §2, §3, §4

[6] = tested on: S. pneumoniae 030GR20; details: S. pneumoniae 030GR20, ery S; reading after 24 hours
Protocol: as §1, §2, §3, §4

[7] = tested on: S. pneumoniae 030PW23c; details: ery R, reading after 24 hours
Protocol: as §1, §2, §3, §4

[8] = tested on: S. pneumoniae 030SJ51; details: S. pneumoniae 030SJ51, ery R; reading after 24 hours
Protocol: as §1, §2, §3, §4

[9] = tested on: S. mitis 02MitCB1; details: S. mitis 02MitCB1, Ery S; reading after 24 hours
Protocol: as §1, §2, §3, §4

[10] = tested on: S. pneumoniae 030CR18c; details: ery R, reading after 24 hours
Protocol: as §1, §2, §3, §4

[11] = tested on: E. faecalis 02D2DU15c; details: ery R, reading after 24 hours
Protocol: as §1, §2, §3, §4

[12] = tested on: S. agalactiae 02B1HT1; details: S. agalactiae 02B1HT1, ery S; reading after 24 hours
Protocol: as §1, §2, §3, §4

[13] = tested on: S. aureus 011UC4; details: reading after 24 hours
Protocol: as §1, §2, §3, §4

[14] = tested on: S. mitis 02MitGR16I; details: ery R, reading after 24 hours
Protocol: as §1, §2, §3, §4

[15] = tested on: S. epidermidis 012GO11I; details: oxa S ery R, reading after 24 hours
Protocol: as §1, §2, §3, §4

[16] = tested on: E. faecalis 02D2UC1; details: E. faecalis 02D2UC1, ery S; reading after 24 hours
Protocol: as §1, §2, §3, §4

[17] = tested on: S. aureus 011GO25I; details: oxa S ery R, reading after 24 hours
Protocol: as §1, §2, §3, §4

[18] = tested on: S. pyogenes 02A1UC1; details: S. pyogenes 02A1UC1, ery S; reading after 24 hours
Protocol: as §1, §2, §3, §4

[19] = tested on: S. agalactiae 02B1SJ1c; details: ery R, reading after 24 hours
Protocol: as §1, §2, §3, §4

[20] = tested on: E. faecium 02D3HT1; details: E. faecium 02D3HT1, Ery S; reading after 24 hours
Protocol: as §1, §2, §3, §4

[21] = S. aureus 011UC4 + serum 50%, ery S

Structure (SMILES)	minimum inhibitory concentrations (MIC) [1] [micrograms/cm^3]	minimum inhibitory concentrations (MIC) [2] [micrograms/cm^3]	minimum inhibitory concentrations (MIC) [3]	minimum inhibitory concentrations (MIC) [4] [micrograms/cm^3]	minimum inhibitory concentrations (MIC) [5] [micrograms/cm^3]	minimum inhibitory concentrations (MIC) [6]	minimum inhibitory concentrations (MIC) [7] [micrograms/cm^3]	minimum inhibitory concentrations (MIC) [8] [micrograms/cm^3]	minimum inhibitory concentrations (MIC) [9]	minimum inhibitory concentrations (MIC) [10] [micrograms/cm^3]	minimum inhibitory concentrations (MIC) [11] [micrograms/cm^3]	minimum inhibitory concentrations (MIC) [12]	minimum inhibitory concentrations (MIC) [13, 21] [micrograms/cm^3]	minimum inhibitory concentrations (MIC) ([13]; S. aureus 011UC4, ery S) [micrograms/cm^3]	minimum inhibitory concentrations (MIC) [14] [micrograms/cm^3]	minimum inhibitory concentrations (MIC) [15] [micrograms/cm^3]	minimum inhibitory concentrations (MIC) [16] [micrograms/cm^3]	minimum inhibitory concentrations (MIC) [17] [micrograms/cm^3]	minimum inhibitory concentrations (MIC) [18] [micrograms/cm^3]	minimum inhibitory concentrations (MIC) [19] [micrograms/cm^3]	also measured
CCC1OC(=O)C(C)C(=O)C(C)C(OC2OC(C)CC(NC)C2O)C(C)(OC)CC(C)C(=O)C(C)C2N(NCCCc3ccnc4ccccc34)C(=O)OC12C [Ex. 2, N-Demethyl-11,12-dideoxy-3-de((2,6-dideoxy-3-C-methyl-3-O-methyl-alpha-L-ribohexopyranosyl)oxy)-6-O-methyl-3-oxo-12,11-(oxycarbonyl(2-(3-(4-quinolinyl)-propyl)-hydrazono))-erythromycin]	0.300	0.150	<=0.01 micrograms/cm^3	0.040	0.150	<=0.01 micrograms/cm^3	0.080	0.080	<=0.01 micrograms/cm^3	2.500	>20	0.020 micrograms/cm^3	0.150	0.080	0.080	0.300	0.040	0.600	0.040	0.150	minimum inhibitory concentrations (MIC) [20]: 0.040 micrograms/cm^3
CCC1OC(=O)C(C)C(=O)C(C)C(OC2OC(C)CC(NC)C2O)C(C)(OC)CC(C)C(=O)C(C)C2N(CCCCn3cnc(-c4cccnc4)c3)C(=O)OC12C [Ex. 1, N-Demethyl-11,12-dideoxy-3-de[(2,6-dideoxy-3-C-methyl-3-O-methyl-alpha-L-ribohexopyranosyl)-oxy]-6-O-methyl-3-oxo-12,11-[oxycarbonyl[[4-[4-(3-pyridinyl)-1H-imidazol-1-yl]butyl]imino]]-erythromycin]	0.150	0.150	<=0.02 micrograms/cm^3	0.080	0.080	<=0.02 micrograms/cm^3	0.150	0.080	0.080 micrograms/cm^3	10.000	>40	<=0.02 micrograms/cm^3	0.040	0.300	0.080	0.150	0.080	5.000	0.800	0.600	minimum inhibitory concentrations (MIC) [20]: 0.080 micrograms/cm^3
